The text below walks through data of US10023565B2, “N,N′ substituted piperidinamine compounds, and preparation method and usage thereof” (Institute of Pharmacology and Toxicology Academy of …, priority 2013, dated 2018).

Common to all, as to experiment: Antitumor bioactivity evaluation, breast cancer cells (ATPlite)
(In general: In ATP-based viability assays light output follows the ATP content of the culture.)

The subject of one test is MDA-MB-453. Type of test: cell-based. The settings on record: Homo sapiens, test sample 5 μM, 72 hours, read-out: Inhibitory Rate % MDA-MB-453. Here is the method:
(§1) Antitumor bioactivity evaluation of the compounds of Examples according to the method described below
(§2) Cells plating: a 100 mm culture dish with overgrown adherent cells was digested with 1 ml 0.25% trypsin (GIBCO) at 37° C. for 5 min, and the reaction was terminated with 2 ml culture medium (containing 10% FBS, GIBCO). The cells were scattered and collected, after counting, diluted to 1×10^5 cells/ml, and seeded into a 96-well plate at 50 μl/well, 5000 cells/well, excluding the peripheral circle of wells in which no cell was added, but PBS was added, 60 wells in total, and then incubated at 37° C. for 24 hours for adhering.
(§3) Addition of the compound and lapatinib: the test sample was diluted to a final concentration of 5 μM, and the culture medium with the corresponding compound solvent concentration was filled in the control well, the compound solvent concentration was kept consistent in each well, 5 parellel wells were set for each concentration, 25 μl each well, 25 μl culture medium (in combined group, 25 μl lapatinib was added till a final concentration of 1 μM) supplemented, followed by incubation at 37° C. for 72 hours.
(§4) Test after incubation at 37° C. for 72 hours: 50 μL of ATPlite kit substrate solution was added in each well, and vibrated for 3 min, followed by placing aside in darkness for 10 min, and then supernatant 100 μl/well was taken and placed on aluminescence test plate; the luminescence test plate that has been fully incubated was placed in a luminescence test instrument, to read luminescence value.
(§5) 1. Cell survival rate (%)=Experimental group RLU/control group RLU×100%. The experimental data were subjected to data analysis and processing by utilizing GraphPad software.

A further test concerns BT474. The format is cell-based. Particulars: Homo sapiens, BT-474; test sample 5 μM, 72 hours; read-out: Inhibitory Rate % BT474. As for the experimental part:
as §1, §2, §3, §4, §5

The subject of the next test is SK-BR3. The format is cell-based. The settings on record: Homo sapiens, SK-BR-3; test sample 5 μM, 72 hours; read-out: Inhibitory Rate % SK-BR3. Here is the method:
as §1, §2, §3, §4, §5

In a further test the test system is MDA-MB-361. Type of test: cell-based. The settings on record: Homo sapiens, test sample 5 μM, 72 hours, read-out: Inhibitory Rate % MDA-MB-361. As for the experimental part:
as §1, §2, §3, §4, §5

The subject of a further test is SK/Lap^R1.0. The format is cell-based. The settings on record: Homo sapiens; test sample 5 μM, 72 hours; read-out: Inhibitory Rate % SKLap^R1.0. Here is the method:
as §1, §2, §3, §4, §5

For the next test, the system named is BT/Lap^R1.0. Type of test: cell-based, human. The settings on record: Homo sapiens; test sample 5 μM, 72 hours; read-out: Inhibitory Rate % BT/Lap^R1.0. Here is the method:
as §1, §2, §3, §4, §5

Molecules are shown by their SMILES.

Take `CCOc1ncc(CN2CCC(N(C)Cc3cccc(Cl)c3)CC2)s1` [Example 1, N-methyl-N-m-chlorobenzyl-N-{1-[(2-ethoxythiazol-5-yl)methyl]piperidin-4-yl}amine]: the inhibition at 5 µM in the test on MDA-MB-453 turned out to be 41.2%; in the test on BT474, 14.4%; in the test with SK-BR3, 16.7%; with MDA-MB-361, 14.2%; in the test on SK/Lap^R1.0 it was 5.2%; with BT/Lap^R1.0, 12.5%.

As to `CCOc1ncc(CN2CCC(N(C)Cc3ccccc3C#N)CC2)s1` [Example 2, N-methyl-N-o-cyanobenzyl-N-{1-[(2-ethoxythiazol-5-yl)methyl]piperidin-4-yl}amine], the inhibition at 5 µM with MDA-MB-453 was 43.8%; in the test with BT474, 17.6%; in the test on SK-BR3, 13.6%; with MDA-MB-361, 12.3%; with SK/Lap^R1.0, 7.2%; in the test with BT/Lap^R1.0 it was 19.4%.

Take `CCOc1ncc(CN2CCC(N(C)Cc3ccc(Cl)c(Cl)c3)CC2)s1` [Example 3, N-methyl-N-(3,4-dichlorobenzyl)-N-{1-[(2-ethoxythiazol-5-yl)methyl]piperidin-4-yl}amine]: the inhibition at 5 µM with MDA-MB-453 was determined as 71.6%; in the test on BT474, 62.9%; with SK-BR3 it was 41.2%; in the test on MDA-MB-361, 35.8%; in the test with SK/Lap^R1.0 it was 13.1%; in the test on BT/Lap^R1.0, 67.4%.

In the case of `CCOc1ncc(CN2CCC(N(C)Cc3ccc(C#N)cc3)CC2)s1` [Example 4, N-methyl-N-(4-cyanobenzyl)-N-{1-[(2-ethoxythiazol-5-yl)methyl]piperidin-4-yl}amine], the inhibition at 5 µM in the test with MDA-MB-453 turned out to be 70.5%; in the test with BT474, 61.7%; in the test with SK-BR3 it was 45.5%; with MDA-MB-361, 51.3%; in the test with SK/Lap^R1.0, 6.7%; with BT/Lap^R1.0, 66.1%.

`CCOc1ncc(CN2CCC(N(C)Cc3c(F)cccc3Cl)CC2)s1` [Example 5, N-methyl-N-(2-fluoro-6-chlorobenzyl)-N-{1-[(2-ethoxythiazol-5-yl)methyl]piperidin-4-yl} amine]: the inhibition at 5 µM in the test on MDA-MB-453 is 67.4%; in the test on BT474, 54.4%; in the test with SK-BR3, 40.9%; in the test with MDA-MB-361, 32.8%; in the test with SK/Lap^R1.0, 11.7%; with BT/Lap^R1.0, 50.5%.

Turning to `CCOc1ncc(CN2CCC(N(C)Cc3ccccc3Cl)CC2)s1` [Example 6, N-methyl-N-(2-chlorobenzyl)-N-{1-[(2-ethoxythiazol-5-yl)methyl]piperidin-4-yl}amine], the inhibition at 5 µM with MDA-MB-453 is 36.4%; in the test on BT474, 10.1%; with SK-BR3 it was 12.6%; with MDA-MB-361 it was 33.3%; in the test with SK/Lap^R1.0, 0.6%; with BT/Lap^R1.0 it was 13.3%.

Regarding `CCOc1ncc(CN2CCC(N(C)Cc3ccc(F)cc3)CC2)s1` [Example 7, N-methyl-N-(4-fluorobenzyl)-N-{[1-(2-ethoxythiazol-5-yl)methyl]piperidin-4-yl}amine], the inhibition at 5 µM came out at 52.9% in the test with MDA-MB-453; 36.4% in the test on BT474; 26% with SK-BR3; 24.2% in the test with MDA-MB-361; 25.1% in the test with SK/Lap^R1.0; 20.7% in the test with BT/Lap^R1.0.

For the compound `CCOc1ncc(CN2CCC(N(C)Cc3ccc(Cl)cc3Cl)CC2)s1` [Example 8, N-methyl-N-(2,4-dichlorobenzyl)-N-{[1-(2-ethoxythiazol-5-yl)methyl]piperidin-4-yl}amine], the inhibition at 5 µM in the test on MDA-MB-453 worked out at 71.3%; with BT474, 70.3%; in the test with SK-BR3, 41.6%; with MDA-MB-361, 49.2%; in the test on SK/Lap^R1.0, 12%; in the test on BT/Lap^R1.0, 65.9%.

For `CCOc1ncc(CN2CCC(N(C)Cc3c(Cl)cccc3Cl)CC2)s1` [Example 9, N-methyl-N-(2,6-dichlorobenzyl)-N-{[1-(2-ethoxythiazol-5-yl)methyl]piperidin-4-yl}amine], the inhibition at 5 µM came to 51.5% with MDA-MB-453; 38.2% in the test with BT474; 17.9% in the test with SK-BR3; 24.5% in the test with MDA-MB-361; 5.1% with SK/Lap^R1.0; 25.6% in the test on BT/Lap^R1.0.

Regarding `CCOc1ncc(CN2CCC(N(C)Cc3cc(Cl)ccc3Cl)CC2)s1` [Example 10, N-methyl-N-(2,5-dichlorobenzyl)-N-{[1-(2-ethoxythiazol-5-yl)methyl]piperidin-4-yl}amine], the inhibition at 5 µM with MDA-MB-453 was 23.9%; with BT474 it was 5.6%; with SK-BR3, 9.4%; in the test on MDA-MB-361, 25.3%; in the test on SK/Lap^R1.0, 5.2%; in the test on BT/Lap^R1.0, 9.6%.

For the compound `Clc1ncc(CN2CCC(NCc3ccc(Cl)c(Cl)c3)CC2)s1` [Example 11, N-(3,4-dichlorobenzyl)-N-{1-[(2-chlorothiazol-5-yl)methyl]piperidin-4-yl}amine], the inhibition at 5 µM with MDA-MB-453 is 32.9%; in the test with BT474 it was 11%; in the test on SK-BR3, 26.3%; with MDA-MB-361, 13.9%; in the test on SK/Lap^R1.0, 25.1%; in the test with BT/Lap^R1.0 it was 10.6%.

In the case of `Clc1cccc(CNC2CCN(Cc3cnc(Cl)s3)CC2)c1` [Example 13, N-(3-chlorobenzyl)-N-{1-[(2-chlorothiazol-5-yl)methyl]piperidin-4-yl}amine], the inhibition at 5 µM was 2.4% in the test on MDA-MB-453; 3.8% with BT474; 17.9% with SK-BR3; 3.2% in the test on MDA-MB-361; 4.1% with SK/Lap^R1.0; 7.2% with BT/Lap^R1.0.

Turning to `CN(Cc1ccc(C#N)cc1)C1CCN(Cc2cnc(Cl)s2)CC1` [Example 15, N-methyl-N-(4-cyanobenzyl)-N-{1-[(2-chlorothiazol-5-yl)methyl]piperidin-4-yl}amine], the inhibition at 5 µM is 68.5% in the test with MDA-MB-453; 69.3% with BT474; 41.5% with SK-BR3; 35.6% in the test with MDA-MB-361; 7.5% with SK/Lap^R1.0; 68.7% in the test on BT/Lap^R1.0.

Consider `CN(Cc1ccc(F)cc1)C1CCN(Cc2cnc(Cl)s2)CC1` [Example 16, N-methyl-N-(4-fluorobenzyl)-N-{1-[(2-chlorothiazol-5-yl)methyl]piperidin-4-yl}amine], for which the inhibition at 5 µM in the test on MDA-MB-453 was 11%; with BT474 it was 7.1%; with SK-BR3, 18.6%; in the test with MDA-MB-361 it was -1.3%; in the test on SK/Lap^R1.0, -0.1%; in the test with BT/Lap^R1.0, 9%.

For `CN(Cc1ccc(Cl)c(Cl)c1)C1CCN(Cc2cnc(Cl)s2)CC1` [Example 17, N-methyl-N-(3,4-dichlorobenzyl)-N-{1-[(2-chlorothiazol-5-yl)methyl]piperidin-4-yl}amine], the inhibition at 5 µM was determined as 63.8% with MDA-MB-453; 45.4% in the test with BT474; 34.3% with SK-BR3; 42.9% in the test on MDA-MB-361; 5.3% with SK/Lap^R1.0; 53.4% in the test on BT/Lap^R1.0.

For the compound `CN(Cc1cccc(Cl)c1)C1CCN(Cc2cnc(Cl)s2)CC1` [Example 18, N-methyl-N-(3-chlorobenzyl)-N-{1-[(2-chlorothiazol-5-yl)methyl]piperidin-4-yl}amine], the inhibition at 5 µM in the test with MDA-MB-453 came out at 12.6%; in the test on BT474, 7.1%; in the test on SK-BR3 it was 15.5%; in the test on MDA-MB-361 it was 9.7%; in the test with SK/Lap^R1.0, 8.5%; in the test on BT/Lap^R1.0, 8.4%.

With `CN(Cc1c(F)cccc1Cl)C1CCN(Cc2cnc(Cl)s2)CC1` [Example 19, N-methyl-N-(2-fluoro-6-chlorobenzyl)-N-{[1-(2-chlorothiazol-5-yl)methyl]piperidin-4-yl}amine], the inhibition at 5 µM in the test on MDA-MB-453 was found to be 22.4%; in the test on BT474, 10.6%; in the test on SK-BR3, 9.8%; with MDA-MB-361, 10.4%; in the test on SK/Lap^R1.0, 1.5%; with BT/Lap^R1.0, 3.2%.

Turning to `CN(Cc1ccc(Cl)cc1Cl)C1CCN(Cc2cnc(Cl)s2)CC1` [Example 20, N-methyl-N-(2,4-dichlorobenzyl)-N-{[1-(2-chlorothiazol-5-yl)methyl]piperidin-4-yl}amine], the inhibition at 5 µM amounted to 60.8% in the test on MDA-MB-453; 64.1% in the test with BT474; 47.1% in the test on SK-BR3; 30.1% in the test on MDA-MB-361; 11.4% in the test with SK/Lap^R1.0; 61.8% with BT/Lap^R1.0.
